Source: patent US20150315211A1, “SMALL MOLECULES FOR THE MODULATION OF MCL-1 AND METHODS OF MODULATING CELL DEATH, CELL DIVISION, CELL DIFFERENTIATION AND METHODS OF TREATING DISORDERS” (priority 2010, published 2015)

Key:
[1] = target: BCL-XLΔC (Homo sapiens, UniProt Q07817); assay: High-throughput competitive FP binding screen, FITC-BAD BH3/BCL-XLΔC interaction; details: FITC-BAD BH3/BCL-XLΔC interaction pair, competitive FP screen
[2] = system: MCL-1ΔNΔC; assay: High-throughput competitive FP binding screen, FITC-MCL-1 SAHB/MCL-1ΔNΔC interaction; details: selectivity for MCL-1ΔNΔC over BCL-XLΔC targeting (BCL-XL % Bound minus MCL-1 % Bound)
[3] = target: MCL-1ΔNΔC (Homo sapiens, UniProt Q07820); assay: as above; design: the C-terminal alpha-helix was deleted from each of these constructs; GST (N, cleaved yes); made in house; details: FITC-MCL-1 SAHB/MCL-1ΔNΔC interaction pair, competitive FP screen
Chain of MCL-1ΔNΔC (Homo sapiens, UniProt Q07820) (Q07820 172-320 limits assumed, stated change not applied): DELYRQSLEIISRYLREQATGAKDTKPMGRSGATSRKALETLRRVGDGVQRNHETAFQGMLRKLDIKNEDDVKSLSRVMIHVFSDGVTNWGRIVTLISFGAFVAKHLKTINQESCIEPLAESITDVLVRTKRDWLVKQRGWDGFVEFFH

Chain of BCL-XLΔC (Q07817 1-212 limits assumed, stated change not applied): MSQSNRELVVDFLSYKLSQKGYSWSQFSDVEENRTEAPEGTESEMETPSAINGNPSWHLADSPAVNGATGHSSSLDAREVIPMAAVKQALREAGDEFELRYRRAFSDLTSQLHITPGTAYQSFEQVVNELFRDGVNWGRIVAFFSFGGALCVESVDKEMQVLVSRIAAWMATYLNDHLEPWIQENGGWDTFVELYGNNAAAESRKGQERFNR

Row | SMILES | BCL-XL % Bound [1] [%] | Spec Values [2] | MCL-1% Bound [3] [%]
1 | COc1cccc(OCc2nnc(SCc3ccccc3)n2C)c1 | 97.51 | 50.95 | 46.56
2 | CCOC(=O)c1c(C)oc2c1c1c(c3ccccc32)OCN(C2CC(C)(C)NC(C)(C)C2)C1 | 85 | 50.9 | 34.11
3 | CC1CCC(C(C)C)C(OC(=O)COC(=O)c2ccc(O)cc2)C1 (stereo not drawn) | 106.5 | 50.73 | 55.74
4 | Cc1cccc(CSc2ccc(-c3ccco3)nn2)c1 | 95.36 | 50.6 | 44.76
5 | CSc1sc(C(=O)/C=C/N(C)C)c(-c2cccs2)c1C#N | 30.42 | 50.48 | −20.06
6 | Cc1nn(C)c2nc(NNC(=O)c3cccc(C(F)(F)F)c3)ccc12 | 107.3 | 50.23 | 57.07
7 | CN1CCN(C(c2ccccn2)c2c(-c3ccccc3)n(O)c3ccccc23)CC1 (stereo not drawn) | 99.83 | 49.28 | 50.55
8 | CC(C)(C)c1ccc(-c2nnc(S)[nH]2)cc1 | 96.8 | 48.83 | 47.97
9 | Cc1oc(-c2cccc(C(F)(F)F)c2)cc1C(=O)O | 81.9 | 48.68 | 33.22
10 | COc1cc(C(c2nnnn2C2CCCCC2)N2CCc3ccccc3C2)ccc1O (stereo not drawn) | 105.8 | 48.33 | 57.44
11 | CNc1sc(C(=O)c2cccs2)c(N)c1-c1nc2ccccc2s1 | 92.47 | 48.22 | 44.25
12 | c1ccc(-c2ccc3c(c2)c2c4n3CCN=C4CCC2)cc1 | 68.24 | 47.9 | 20.34
13 | O=C(NCc1ccco1)c1ccc(-c2cc3ccccc3oc2=O)cc1 | 115.7 | 47.79 | 67.95
14 | NNCc1c(Cl)cccc1Cl | 103.5 | 47.77 | 55.76
15 | COC(=O)c1ccc(C(c2cc3c(cc2O)OCO3)N2CCN(c3ccccc3)CC2)cc1 (stereo not drawn) | 96.46 | 47.71 | 48.75
16 | CCOC(=O)c1c(N2C(=O)C3C4C=CC(O4)C3C2=O)sc2c1CCCC2 (stereo not drawn) | 95.97 | 47.7 | 48.27
17 | CC1=NN(c2ccccc2)C(=O)/C1=C/c1ccc(OC(=O)c2ccco2)c(Cl)c1 | 96.2 | 47.67 | 48.53

More lines, now with the values ahead:

Row | BCL-XL % Bound [1] [%] | Spec Values [2] | MCL-1% Bound [3] [%] | SMILES
18 | 85.88 | 50.28 | 35.61 | CCOc1cc(/C=C(/C#N)c2cccc(Br)c2)ccc1OCc1ccc(C(=O)O)o1
19 | 106.3 | 49.78 | 56.55 | CCOC(=O)c1ccc2nc(NC(=O)CSc3nc(C)cc(=O)[nH]3)sc2c1
20 | 100.2 | 49.76 | 50.42 | CC1=C(C)C/S(=N\S(=O)(=O)c2ccc(Cl)cc2)N(S(=O)(=O)c2ccc(Cl)cc2)C1 (stereo not drawn)
21 | 96.49 | 49.7 | 46.79 | O=c1ccc(-c2ccco2)nn1Cc1ccc(Cl)c(Cl)c1
22 | 84.74 | 48.92 | 35.82 | Cc1c(Cl)cccc1N1C(=O)CC(N2CCCc3ccccc32)C1=O (stereo not drawn)
23 | 92.39 | 48.16 | 44.24 | CCCCn1c2ccccc2c2nnc(S)nc21
24 | 92.47 | 48.07 | 44.41 | CC1=CC(=O)C(CCCC2=CC(=O)C=CC2=O)=CC1=O
25 | 90.62 | 47.55 | 43.07 | CC1(C)CC(=O)C(=Cc2cn(-c3ccccc3)nc2-c2cccs2)C(=O)C1
